Results: PMC9645344, “Serotonin-releasing agents with reduced off-target effects” (Molecular Psychiatry, 2022)

Legend:
human DAT = target: T1, human DAT (Homo sapiens, UniProt Q01959); assay: DAT uptake inhibition assay in HEK293 cells ([3H]MPP+); type: cell-based; settings: for DAT/SERT ratio: (1/DAT IC50)/(1/SERT IC50), higher values indicate higher DAT-selectivity
T1 construct: expressed in transfected cells
Experimental: (§1) Human embryonic kidney 293 (HEK293) cells stably expressing the human isoforms of either DAT or SERT were maintained in Dulbecco’s Modified Eagle Medium (DMEM), supplemented with 10% fetal calf serum at a subconfluent state in humidified atmosphere (5% CO2, 37 °C).
(§2) Uptake inhibition assays were performed as described earlier. Briefly, HEK293 cells stably expressing human SERT or DAT were seeded onto poly- D-lysine (PDL) coated 96-well plates (40,000 cells well^−1) the day before an experiment. Prior to the uptake inhibition assay, DMEM was replaced with Krebs-HEPES buffer (KHB, 25 mM HEPES, 120 mM NaCl, 5 mM KCl, 1.2 mM CaCl2, 1.2 mM MgSO4, and 5 mM D-glucose, pH 7.3) and the cells were preincubated with test drugs for 5 min at room temperature. Uptake assays were initiated by adding 20 nM [^3H]MPP^+ to DAT cells or 100 nM [^3H]5-HT to SERT cells. After 180 s (DAT) or 60 s (SERT), the tritiated substrate was removed by aspiration. Cells were washed once with ice-cold KHB, then lysed in 1% sodium dodecyl sulfate (SDS) and subjected to liquid scintillation counting to quantify tritium accumulated in each sample. Non-specific uptake was determined in the presence of mazindol (1 µM) for DAT or paroxetine (1 µM) for SERT and subtracted throughout.

human SERT [1] = target: T2, human SERT (Homo sapiens, UniProt P31645); assay: [3H]5-HT release assay in HEK293 cells (superfusion); type: cell-based; settings: 10 µM, SERT-expressing HEK293 cells
T2 construct: expressed in transfected cells
Experimental: HEK293 cells stably expressing SERT were seeded onto PDL-coated glass coverslips (5 mm diameter) that were placed into 96-well plates at a density of 40,000 cells per well the day before the experiment. Cells were preloaded with [^3H]5-HT (0.4 µM, 20 min at 37 °C). Subsequently, the cells were transferred into small chambers with a total volume of 200 µl and superfused with KHB at a flow rate of 0.7 ml per min for 40 min to establish a stable baseline before the collection of 2-min fractions was initiated. For each experiment, three basal fractions were collected before the cells were exposed to various concentrations (given in the figure legends) of the test drugs for five fractions. Subsequently, the cells were superfused with 1% SDS for three final fractions that served to determine the total amount of radioactivity present within the cells at the end of each experimental run. The amount of tritium within each fraction was determined by liquid scintillation counting, and release was expressed as percentage of radioactivity released in relation to the total radioactivity present at the beginning of that fraction. Observations from superfusion experiments were excluded in case of premature exposure to SDS.

human SERT [2] = target: T2, human SERT; assay: SERT uptake inhibition assay in HEK293 cells ([3H]5-HT); type: cell-based
Experimental: as §1, §2

C57BL/6N mice = assay: Forced-swim test (FST); type: in vivo; settings: for immobility time in the FST versus vehicle: mice
Experimental: All in vivo experiments were performed in adult mice (>6 weeks old). For the photometry and microdialysis experiments, which were carried out in Florida, male C57BL/6J mice from The Jackson Laboratory (Bar Harbor, ME, USA) were group-housed in polycarbonate cages (GM500, Tecniplast, Buguggiate, Italy) with lights on from 7 a.m. to 7 p.m. Food and water were provided ad libitum. Photometry and microdialysis experiments were performed in accordance with a protocol approved by the Institutional Animal Care and Use Committee at Florida Atlantic University. For the behavioral experiments, which were carried out in Vienna, C57BL/6N mice from Charles River (Sulzfeld, Germany) were group-housed in polycarbonate cages with lights on from 7 a.m. to 7 p.m. Food and water were provided ad libitum. Behavioral experiments were performed in accordance with a protocol approved by the Austrian national ethical committee on animal care and use (Bundesministerium für Wissenschaft und Forschung: BMWFW-66.009/0016-WF/V/3b/2015). All animal procedures were conducted in agreement with the ARRIVE guidelines and the U.K. Animal (Scientific Procedures) Act, 1986, and associated guidelines, EU Directive 2010/63/EU for animal experiments. Mice were given at least 1 week to acclimate before being used in any experiments.
For behavioral assays, animals were assigned to treatment groups and injected with test drugs by an unblinded observer.
The FST was performed as previously described. In brief, mice were placed for 6 min in a beaker (diameter: 19 cm, height: 23 cm), halfway filled with water (22–23 °C), and the immobility time was quantified using the software Videotrack (Viewpoint, Champagne au Mont d’Or, France). Immobility was defined as the absence of any movement, except for those required to keep the head above the water. The time spent immobile during the final 4 min of the test was used as a measure of behavioral despair. Animal sample size was confirmed using a post hoc analysis of the achieved power using G*Power3.1 [29]. Using a significance level (α) of 0.05 and an effect size f = 2.5 and a sample size of 6 animals/group we achieved the commonly accepted statistical power (1−β) of 0.8.

T1 sequence (Q01959 whole entry): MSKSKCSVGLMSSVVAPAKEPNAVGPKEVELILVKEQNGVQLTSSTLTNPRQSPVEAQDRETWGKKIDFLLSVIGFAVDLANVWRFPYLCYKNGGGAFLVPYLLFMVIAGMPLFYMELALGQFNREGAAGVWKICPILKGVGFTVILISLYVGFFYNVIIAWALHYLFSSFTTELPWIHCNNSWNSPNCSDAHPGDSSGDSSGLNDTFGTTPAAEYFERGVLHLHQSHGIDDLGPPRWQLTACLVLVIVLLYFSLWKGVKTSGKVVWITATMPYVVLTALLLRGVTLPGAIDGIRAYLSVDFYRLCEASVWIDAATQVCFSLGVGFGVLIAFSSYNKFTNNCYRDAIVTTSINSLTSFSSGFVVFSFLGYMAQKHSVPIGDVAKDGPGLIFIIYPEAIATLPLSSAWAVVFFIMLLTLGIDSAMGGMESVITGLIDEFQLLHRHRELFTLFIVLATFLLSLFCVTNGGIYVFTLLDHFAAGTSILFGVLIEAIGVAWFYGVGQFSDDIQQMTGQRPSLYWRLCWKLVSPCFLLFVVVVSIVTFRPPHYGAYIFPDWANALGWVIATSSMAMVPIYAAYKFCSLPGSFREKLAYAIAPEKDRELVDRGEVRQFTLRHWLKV
T2 sequence (P31645 whole entry, the tested form may be a part): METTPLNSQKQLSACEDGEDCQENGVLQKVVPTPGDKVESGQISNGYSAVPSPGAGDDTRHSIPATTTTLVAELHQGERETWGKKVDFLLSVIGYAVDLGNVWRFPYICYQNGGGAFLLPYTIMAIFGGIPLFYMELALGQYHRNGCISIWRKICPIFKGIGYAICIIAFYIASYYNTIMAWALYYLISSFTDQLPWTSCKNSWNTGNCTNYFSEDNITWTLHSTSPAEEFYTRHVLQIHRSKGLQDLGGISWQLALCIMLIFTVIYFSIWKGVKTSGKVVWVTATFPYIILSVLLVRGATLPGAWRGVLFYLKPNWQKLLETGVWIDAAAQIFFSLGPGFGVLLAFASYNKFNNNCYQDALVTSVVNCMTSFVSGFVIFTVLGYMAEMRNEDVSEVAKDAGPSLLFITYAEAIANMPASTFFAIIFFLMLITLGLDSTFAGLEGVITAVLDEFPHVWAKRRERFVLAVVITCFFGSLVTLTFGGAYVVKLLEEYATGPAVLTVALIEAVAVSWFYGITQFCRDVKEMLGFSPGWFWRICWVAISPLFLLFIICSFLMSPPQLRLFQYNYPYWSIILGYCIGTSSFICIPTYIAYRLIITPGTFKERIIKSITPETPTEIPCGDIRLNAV

Row | SMILES | IC50 (human DAT) | DAT/SERT ratio (human DAT) | effect on release of preloaded [3H]5-HT (human SERT [1]) | IC50 (human SERT [2]) | immobility time in the FST versus vehicle (C57BL/6N mice; 1 mg kg-1 intraperitoneal) | time spent immobile in the FST, male and female mice (C57BL/6N mice; 5 mg kg-1 intraperitoneal) | immobility time in the FST versus vehicle (C57BL/6N mice; 5 mg kg-1 intraperitoneal) | immobility time in the FST versus vehicle (C57BL/6N mice; 10 mg kg-1 intraperitoneal) | time spent immobile in the FST, male and female mice (C57BL/6N mice; 10 mg kg-1 intraperitoneal)
1 | Cc1ccc(C(=O)[C@H](C)N)cc1 [S-4-MC, 4-methylcathinone] | 6.65 µM | 1.9 | robustly increased | 12.6 µM | significantly reduced immobility time versus vehicle | significantly reduced the time spent immobile regardless of sex | significantly reduced immobility time versus vehicle | significantly reduced immobility time versus vehicle | –
2 | CN[C@@H](C)C(=O)c1ccc(C(F)(F)F)cc1 [S-4-TFMMC, 4-trifluoromethyl-N-methylcathinone] | 190 µM | 0.05 | robustly increased | 10.2 µM | – | – | – | significantly differed from the vehicle group | significantly reduced the time spent immobile regardless of sex
